Reference: US20190125888A1, “TARGETED CONJUGATES AND PARTICLES AND FORMULATIONS THEREOF” (priority 2015, published 2019)
Read-outs that look alike come from different tables or passages of the source.

Key:
[1] = Ligand charge of maytansinoid conjugates; format: physicochemical
[2] = target: human SSTR2 (Homo sapiens, UniProt P30874); experiment: Radioligand-receptor binding assay, [125I] somatostatin, membranes from SSTR2 expressing CHO-K1 cells
Method: These conjugates were also assessed in an in vitro assay evaluating binding to the somatostatin receptor 2 (SSTR2). A radioligand-receptor binding assay was conducted at Eurofins Panlabs (Taiwan) to determine the affinity of conjugates described herein to the SSTR2. The assay measures binding of radiolabeled ligand, [^125I] labeled somatostatin, to human SSTR2 using membrane preparations from SSTR2 expressing CHO-K1 cells. Membranes were incubated with radiolabeled somatostatin (0.03 nM) in the presence of conjugate/compound starting at a dose of 10 uM using 6× serial dilutions to obtain a 10-pt curve. After a four hour incubation, membranes were filtered and washed 3× and counted to determine the remaining [^125I] somatostatin bound to the receptor. IC50 values were determined by a non-linear, least squares regression analysis using MathIQ™ (ID Business Solutions Ltd., UK).

[3] = tested on: NCI-H524 (ATCC) human lung cancer cells; format: cell-based
Method: FIG. 1 is a graph of various conjugates represented as bars and showing on the Y-axis their activity in an H524 proliferation assay with and without competition by octreotide. […] This illustrates the suprprising finding that only maytansinoid conjugates show activity that is dependent on the receptor.
Conjugates were assessed in an in vitro assay evaluating inhibition of cell proliferation. NCI-H524 (ATCC) human lung cancer cells were plated in 96 well, V-bottomed plates (Costar) at a concentration of 5,000 cells/well and 24 hours later were treated with compound for 6 hours and further incubated 66 hours. Compound starting dose was 20 μM and three fold serial dilutions were done for a total of ten points. After 6 hours of treatment, cells were spun down, the drug containing media was removed, and fresh complete medium was added and used to resuspend the cells, which were spun again. After removal of the wash media, the cells were resuspended in complete medium, then transferred into white walled, flat bottomed 96 well plates. […] Proliferation was measured using CellTiter Glo reagent using the standard protocol (Promega) and a Glomax multi+detection system (Promega). Percent proliferation inhibition was calculated using the following formula: % inhibition=(control-treatment)/control*100. Control is defined as vehicle alone. IC50 curves were generated using the nonlinear regression analysis (four parameter) with GraphPad Prism 6.
Conjugates were tested for their activity dependence on the somatostatin receptor. Active agent Z in the conjugate was selected from auristatin, carbazitaxel, DM1, doxorubicin, platinum, SN-38 and vinblastine. Active agent Z is connected to octreotide with various linkers. Proliferation IC50 values of the conjugates were measured. Proliferation IC50 values of the conjugates without octreotide competition were also measured. The ratio of IC50 with octreotide competition and IC50 without octreotide competition is an indicator of whether activity is at least particially dependent on bind to the somatostatin receptor. […] Therefore, the activity of conjugates comprising DM1 is dependent on the binding to the somatostatin receptor.

[4] = read-out: H524 IC50 6 h, 6 hours treatment, further 66 hours incubation
[5] = read-out: H524 IC50 with 100 μM octreotide 6 h, with 100 μM octreotide competition, 6 h treatment

human SSTR2, sequence (P30874 whole entry): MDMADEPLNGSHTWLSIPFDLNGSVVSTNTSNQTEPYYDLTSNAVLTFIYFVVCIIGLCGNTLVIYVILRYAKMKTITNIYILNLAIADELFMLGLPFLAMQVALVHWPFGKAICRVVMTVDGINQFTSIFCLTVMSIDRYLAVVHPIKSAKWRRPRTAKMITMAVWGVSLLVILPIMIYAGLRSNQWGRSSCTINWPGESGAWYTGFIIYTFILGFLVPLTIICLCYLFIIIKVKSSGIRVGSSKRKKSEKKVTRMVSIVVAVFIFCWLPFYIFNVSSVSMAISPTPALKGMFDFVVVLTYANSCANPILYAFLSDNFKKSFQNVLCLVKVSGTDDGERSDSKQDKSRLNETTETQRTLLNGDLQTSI

Row | SMILES | Ligand charge [1] | Ki [2] [nM] | IC50 [3, 4] [nM] | IC50 [3, 5] [nM] | effect on cell proliferation ([3]; octreotide alone)
1 | COc1cc2cc(c1Cl)N(C)C(=O)C[C@H](OC(=O)[C@H](C)N(C)C(=O)CCSSCCNC(=O)CC[C@H](NC(=O)[C@@H]1CSSC[C@H](NC(=O)[C@H](N)Cc3ccccc3)C(=O)N[C@@H](Cc3ccc(O)cc3)C(=O)N[C@H](Cc3c[nH]c4ccccc34)C(=O)N[C@@H](CCCCN)C(=O)N[C@@H]([C@@H](C)O)C(=O)N1)C(N)=O)[C@]1(C)O[C@H]1[C@H](C)[C@@H]1C[C@@](O)(NC(=O)O1)[C@H](OC)/C=C/C=C(\C)C2 [Conjugate 47] | +2 | 0.072 | 0.7 | 210 | –
2 | CCNC(=O)N[C@H](Cc1ccccc1)C(=O)N[C@H]1CSSC[C@@H](C(=O)N[C@H](C(=O)N[C@@H](CSSCCC(=O)N(C)[C@@H](C)C(=O)O[C@H]2CC(=O)N(C)c3cc(cc(OC)c3Cl)C/C(C)=C/C=C/[C@@H](OC)[C@@]3(O)C[C@H](OC(=O)N3)[C@@H](C)[C@@H]3O[C@@]23C)C(N)=O)[C@@H](C)O)NC(=O)[C@H]([C@@H](C)O)NC(=O)[C@H](CCCCN)NC(=O)[C@@H](Cc2c[nH]c3ccccc23)NC(=O)[C@H](Cc2ccc(O)cc2)NC1=O [Conjugate 36] | +1 | – | 0.78 | 10 | –
3 | COc1cc2cc(c1Cl)N(C)C(=O)C[C@H](OC(=O)[C@H](C)N(C)C(=O)CCSSC(C)(C)[C@H](NC(=O)CC[C@H](NC(=O)[C@@H]1CSSC[C@H](NC(=O)[C@H](N)Cc3ccccc3)C(=O)N[C@@H](Cc3ccc(O)cc3)C(=O)N[C@H](Cc3c[nH]c4ccccc34)C(=O)N[C@@H](CCCCN)C(=O)N[C@@H]([C@@H](C)O)C(=O)N1)C(N)=O)C(N)=O)[C@]1(C)O[C@H]1[C@H](C)[C@@H]1C[C@@](O)(NC(=O)O1)[C@H](OC)/C=C/C=C(\C)C2 [Conjugate 18] | +2 | 0.18 | 19 | 353 | –
4 | CCNC(=O)N[C@H](Cc1ccccc1)C(=O)N[C@H]1CSSC[C@@H](C(=O)N[C@@H](CSSCCC(=O)N(C)[C@@H](C)C(=O)O[C@H]2CC(=O)N(C)c3cc(cc(OC)c3Cl)C/C(C)=C/C=C/[C@@H](OC)[C@@]3(O)C[C@H](OC(=O)N3)[C@@H](C)[C@@H]3O[C@@]23C)C(N)=O)NC(=O)[C@H]([C@@H](C)O)NC(=O)[C@H](CCCCN)NC(=O)[C@@H](Cc2c[nH]c3ccccc23)NC(=O)[C@H](Cc2ccc(O)cc2)NC1=O [Conjugate 39] | +1 | 0.07 | 1.3 | 12 | –
5 | COc1cc2cc(c1Cl)N(C)C(=O)C[C@H](OC(=O)[C@H](C)N(C)C(=O)CCSSC(C)(C)[C@@H](NC(=O)[C@@H]1CSSC[C@H](NC(=O)[C@@H](Cc3ccccc3)NC(=O)NCc3ccccc3)C(=O)N[C@@H](Cc3ccc(O)cc3)C(=O)N[C@H](Cc3c[nH]c4ccccc34)C(=O)N[C@@H](CCCCN)C(=O)N[C@@H]([C@@H](C)O)C(=O)N1)C(N)=O)[C@]1(C)O[C@H]1[C@H](C)[C@@H]1C[C@@](O)(NC(=O)O1)[C@H](OC)/C=C/C=C(\C)C2 [Conjugate 9] | +1 | 3.15 | 208 | 815 | –
6 | COc1cc2cc(c1Cl)N(C)C(=O)C[C@H](OC(=O)[C@H](C)N(C)C(=O)CCSSC[C@@H](NC(=O)[C@@H]1CSSC[C@H](NC(=O)[C@@H](Cc3ccccc3)NC(C)=O)C(=O)N[C@@H](Cc3ccc(O)cc3)C(=O)N[C@H](Cc3c[nH]c4ccccc34)C(=O)N[C@@H](CCCCN)C(=O)N[C@@H]([C@@H](C)O)C(=O)N1)C(N)=O)[C@]1(C)O[C@H]1[C@H](C)[C@@H]1C[C@@](O)(NC(=O)O1)[C@H](OC)/C=C/C=C(\C)C2 [Conjugate 31] | +1 | 0.21 | – | – | –
7 | COc1cc2cc(c1Cl)N(C)C(=O)C[C@H](OC(=O)[C@H](C)N(C)C(=O)CCSSCCNC(=O)CC[C@H]1C(=O)N[C@@H](Cc3ccc(O)cc3)C(=O)N[C@H](Cc3c[nH]c4ccccc34)C(=O)N[C@@H](CCCCNC(=O)NCCCCCCN)C(=O)N[C@@H]([C@@H](C)O)C(=O)N[C@@H](Cc3ccccc3)C(=O)N1C)[C@]1(C)O[C@H]1[C@H](C)[C@@H]1C[C@@](O)(NC(=O)O1)[C@H](OC)/C=C/C=C(\C)C2 [Conjugate 55] | +1 | 110 | – | – | –
8 | CCNC(=O)N[C@H](Cc1ccccc1)C(=O)N[C@H]1CSSC[C@@H](C(=O)N[C@H](C(=O)N2CCCCC2)C(C)(C)SSCCC(=O)N(C)[C@@H](C)C(=O)O[C@H]2CC(=O)N(C)c3cc(cc(OC)c3Cl)C/C(C)=C/C=C/[C@@H](OC)[C@@]3(O)C[C@H](OC(=O)N3)[C@@H](C)[C@@H]3O[C@@]23C)NC(=O)[C@H]([C@@H](C)O)NC(=O)[C@H](CCCCN)NC(=O)[C@@H](Cc2c[nH]c3ccccc23)NC(=O)[C@H](Cc2ccc(O)cc2)NC1=O [Conjugate 33] | +1 | – | 265 | 462 | –
9 | CCNC(=O)N[C@H](Cc1ccccc1)C(=O)N[C@H]1CSSC[C@@H](C(=O)N[C@H](C(=O)N[C@H](C(N)=O)C(C)(C)SSCCC(=O)N(C)[C@@H](C)C(=O)O[C@H]2CC(=O)N(C)c3cc(cc(OC)c3Cl)C/C(C)=C/C=C/[C@@H](OC)[C@@]3(O)C[C@H](OC(=O)N3)[C@@H](C)[C@@H]3O[C@@]23C)[C@@H](C)O)NC(=O)[C@H]([C@@H](C)O)NC(=O)[C@H](CCCCN)NC(=O)[C@@H](Cc2c[nH]c3ccccc23)NC(=O)[C@H](Cc2ccc(O)cc2)NC1=O [Conjugate 16] | +1 | – | 185 | 516 | –
10 | CCNC(=O)N[C@H](Cc1ccccc1)C(=O)N[C@H]1CSSC[C@@H](C(=O)N[C@H](C(=O)NCCCCCN2C(=O)CC(SCCC(=O)N(C)[C@@H](C)C(=O)O[C@H]3CC(=O)N(C)c4cc(cc(OC)c4Cl)C/C(C)=C/C=C/[C@@H](OC)[C@@]4(O)C[C@H](OC(=O)N4)[C@@H](C)[C@@H]4O[C@@]34C)C2=O)[C@@H](C)O)NC(=O)[C@H]([C@@H](C)O)NC(=O)[C@H](CCCCN)NC(=O)[C@@H](Cc2c[nH]c3ccccc23)NC(=O)[C@H](Cc2ccc(O)cc2)NC1=O (stereo partly shown) [Conjugate 23] | +1 | – | 5 | 124 | –
11 | COc1cc2cc(c1Cl)N(C)C(=O)C[C@H](OC(=O)[C@H](C)N(C)C(=O)CCSC1CC(=O)N(CCCCCNC(=O)[C@@H](NC(=O)[C@@H]3CSSC[C@H](NC(=O)[C@@H](Cc4ccccc4)NC(=O)NC4CCCCC4)C(=O)N[C@@H](Cc4ccc(O)cc4)C(=O)N[C@H](Cc4c[nH]c5ccccc45)C(=O)N[C@@H](CCCCN)C(=O)N[C@@H]([C@@H](C)O)C(=O)N3)[C@@H](C)O)C1=O)[C@]1(C)O[C@H]1[C@H](C)[C@@H]1C[C@@](O)(NC(=O)O1)[C@H](OC)/C=C/C=C(\C)C2 (stereo partly shown) [Conjugate 22] | +1 | – | 2.6 | 94 | –
12 | CCCC(=O)N[C@H](Cc1ccccc1)C(=O)N[C@H]1CSSC[C@@H](C(=O)N[C@H](C(=O)NCCSSC(C)(C)CCC(=O)N(C)[C@@H](C)C(=O)O[C@H]2CC(=O)N(C)c3cc(cc(OC)c3Cl)C/C(C)=C/C=C/[C@@H](OC)[C@@]3(O)C[C@H](OC(=O)N3)[C@@H](C)[C@@H]3O[C@@]23C)[C@@H](C)O)NC(=O)[C@H]([C@@H](C)O)NC(=O)[C@H](CCCCN)NC(=O)[C@@H](Cc2c[nH]c3ccccc23)NC(=O)[C@H](Cc2ccc(O)cc2)NC1=O [Conjugate 3] | +1 | – | – | – | –
13 | COc1cc2cc(c1Cl)N(C)C(=O)C[C@H](OC(=O)[C@H](C)N(C)C(=O)CCSSC(C)(C)[C@H](NC(=O)[C@@H](NC(=O)[C@@H]1CSSC[C@H](NC(=O)[C@@H](Cc3ccccc3)NCc3ccccc3)C(=O)N[C@@H](Cc3ccc(O)cc3)C(=O)N[C@H](Cc3c[nH]c4ccccc34)C(=O)N[C@@H](CCCCN)C(=O)N[C@@H]([C@@H](C)O)C(=O)N1)[C@@H](C)O)C(N)=O)[C@]1(C)O[C@H]1[C@H](C)[C@@H]1C[C@@](O)(NC(=O)O1)[C@H](OC)/C=C/C=C(\C)C2 [Conjugate 17] | +2 | – | 8.5 | 48 | –
14 | C[C@@H](O)[C@@H]1NC(=O)[C@H](CCCCN)NC(=O)[C@@H](Cc2c[nH]c3ccccc23)NC(=O)[C@H](Cc2ccccc2)NC(=O)[C@@H](NC(=O)[C@H](N)Cc2ccccc2)CSSC[C@@H](C(=O)N[C@H](CO)[C@@H](C)O)NC1=O [Octreotide, H2N-D-Phe-Cys-Phe-D-Trp-Lys-Thr-Cys-Thr-ol (disulfide bridge Cys2-Cys7), reference compound] | – | – | – | – | no significant effect
